Experimental data from patent US9034857B2 (Health Research, Inc., priority 2010, dated 2015).
Entries after “also recorded” stand apart in the source; their conditions may differ. Like-named read-outs stand apart in the source and are kept apart here.

Test system: intracellular O2- in stationary phase budding yeast cells
Assay: High throughput flow cytometry DHE screen for reduction of superoxide in stationary phase budding yeast
Format: cell-based, S. cerevisiae
[1] = dose response assays from 0.004 uM to 30 uM, 7 day incubation, 7% glucose

SMILES: CC(=NNc1ncnc2sc(C)c(C)c12)c1ccccn1 [MLS001176565, 5,6-dimethyl-N-(1-pyridin-2-ylethylideneamino)thieno[2,3-d]pyrimidin-4-amine]
- dose dependency in re-screening (reduction of superoxide, DHE) [1]: identified by dose dependency; also recorded: exhibited dose dependency

SMILES: CC(C)OC(=O)c1ccc2nc3ccccc3nc2c1 [MLS001173415, propan-2-yl phenazine-2-carboxylate]
- dose dependency in re-screening (reduction of superoxide, DHE) [1]: identified by dose dependency; also recorded: exhibited dose dependency

SMILES: CNC(=O)c1cccc2nc3ccccc3nc12 [MLS001044346, N-methylphenazine-1-carboxamide]
- dose dependency in re-screening (reduction of superoxide, DHE) [1]: identified by dose dependency; also recorded: exhibited dose dependency

SMILES: CC(C)(C)Nc1ncnc2c1cnn2-c1ccccc1 [MLS000100785, N-tert-butyl-1-phenylpyrazolo[3,4-d]pyrimidin-4-amine]
- dose dependency in re-screening (reduction of superoxide, DHE) [1]: identified by dose dependency; also recorded: exhibited dose dependency

SMILES: C[C@]12CCC3C(CC[C@H]4C[C@@H](O)CC[C@]34C)[C@H]1CC[C@H]2O (stereo partly drawn) [MLS002554375, (3S,5S,10S,13S,14R,17R)-10,13-dimethyl-2,3,4,5,6,7,8,9,11,12,14,15,16,17-tetradecahydro-1H-cyclopenta[a]phenanthrene-3,17-diol]
- dose dependency in re-screening (reduction of superoxide, DHE): identified by dose dependency; also recorded: exhibited dose dependency

SMILES: CC(C)(C)n1nc(-c2ccc(F)cc2)c2c(N)ncnc21 [MLS000326584, 1-tert-butyl-3-(4-fluorophenyl)pyrazolo[3,4-d]pyrimidin-4-amine]
- dose dependency in re-screening (reduction of superoxide, DHE) [1]: identified by dose dependency; also recorded: exhibited dose dependency

SMILES: FC(F)(F)c1nc2cc3nc4ccccc4nc3cc2[nH]1 [MLS001049309, 2-(trifluoromethyl)-1H-imidazo[4,5-b]phenazine]
- dose dependency in re-screening (reduction of superoxide, DHE) [1]: identified by dose dependency; also recorded: exhibited dose dependency

SMILES: CC(=O)Nc1ccc2nc3ccccc3nc2c1 [MLS001044354, N-phenazin-2-ylacetamide]
- dose dependency in re-screening (reduction of superoxide, DHE) [1]: identified by dose dependency; also recorded: exhibited dose dependency

SMILES: COc1cccc2nc3cc(C)c(C)cc3nc12 [MLS000756830, 1-methoxy-7,8-dimethylphenazine]
- dose dependency in re-screening (reduction of superoxide, DHE) [1]: identified by dose dependency; also recorded: exhibited dose dependency

SMILES: CCC(Nc1ccccc1O)=C1C(=O)CC(c2ccccc2)CC1=O (centres unmarked) [MLS000779260, 2-[1-(2-hydroxyanilino)propylidene]-5-phenylcyclohexane-1,3-dione]
- dose dependency in re-screening (reduction of superoxide, DHE) [1]: identified by dose dependency; also recorded: exhibited dose dependency

SMILES: O=C(c1cccc2nc3ccccc3nc12)N1CCOCC1 [MLS001044337, morpholin-4-yl(phenazin-1-yl)methanone]
- dose dependency in re-screening (reduction of superoxide, DHE) [1]: identified by dose dependency; also recorded: exhibited dose dependency

SMILES: COc1ccc2c(c1)c1nnc(SC)nc1n2C [MLS000033501, 8-methoxy-5-methyl-3-methylsulfanyl-[1,2,4]triazino[5,6-b]indole]
- dose dependency in re-screening (reduction of superoxide, DHE) [1]: identified by dose dependency; also recorded: exhibited dose dependency

SMILES: COc1ccc2nc3ccccc3nc2c1N [MLS001044341, 2-methoxyphenazin-1-amine]
- dose dependency in re-screening (reduction of superoxide, DHE) [1]: identified by dose dependency; also recorded: exhibited dose dependency

SMILES: O=c1ccc2[n+]([O-])c3ccccc3n(O)c-2c1 [MLS001208198, 10-hydroxy-5-oxidophenazin-5-ium-2-one]
- dose dependency in re-screening (reduction of superoxide, DHE) [1]: identified by dose dependency; also recorded: exhibited dose dependency

SMILES: C[C@]12CCC3C(CC[C@H]4C[C@H](O)CC[C@]34C)C1C[C@@H](CCCCl)[C@@H]2O (stereo partly drawn) [MLS002554453, (3R,5S,10S,13S,16R,17S)-16-(3-chloropropyl)-10,13-dimethyl-2,3,4,5,6,7,8,9,11,12,14,15,16,17-tetradecahydro-1H-cyclopenta[a]phenanthrene-3,17-diol]
- dose dependency in re-screening (reduction of superoxide, DHE) [1]: identified by dose dependency; also recorded: exhibited dose dependency

SMILES: C#CCSc1nnc(-c2ccc([N+](=O)[O-])cc2)o1 [MLS000663774, 2-(4-nitrophenyl)-5-prop-2-ynylsulfanyl-1,3,4-oxadiazole]
- dose dependency in re-screening (reduction of superoxide, DHE) [1]: identified by dose dependency; also recorded: exhibited dose dependency

SMILES: CNc1ccc2nc3ccccc3[n+](C)c2c1.[O-][Cl+3]([O-])([O-])[O-] [MLS001164912, N,10-dimethylphenazin-10-ium-2-amine perchlorate]
- dose dependency in re-screening (reduction of superoxide, DHE): identified by dose dependency; also recorded: exhibited dose dependency

SMILES: C=CCSc1nnc(-c2ccc([N+](=O)[O-])cc2)o1 [MLS000662516, 2-(4-nitrophenyl)-5-prop-2-enylsulfanyl-1,3,4-oxadiazole]
- dose dependency in re-screening (reduction of superoxide, DHE) [1]: identified by dose dependency; also recorded: exhibited dose dependency

SMILES: O=C(Nc1ccc2nc3ccccc3nc2c1)c1ccccc1 [MLS000418506, N-phenazin-2-ylbenzamide]
- dose dependency in re-screening (reduction of superoxide, DHE) [1]: identified by dose dependency; also recorded: exhibited dose dependency

SMILES: OCC[n+]1c2ccccc2nc2ccc(N3CCOCC3)cc21 [MLS000768911, 2-(3-morpholin-4-ylphenazin-5-ium-5-yl)ethanolperchlorate]
- dose dependency in re-screening (reduction of superoxide, DHE) [1]: identified by dose dependency; also recorded: exhibited dose dependency

SMILES: CC(C)(C)n1nc(-c2ccc(Cl)cc2)c2c(N)ncnc21 [MLS000326622, 1-tert-butyl-3-(4-chlorophenyl)pyrazolo[3,4-d]pyrimidin-4-amine]
- dose dependency in re-screening (reduction of superoxide, DHE): identified by dose dependency; also recorded: exhibited dose dependency

SMILES: C[C@]12CCC3C(CC[C@H]4C[C@H](O)CC[C@]34C)C1CCC2=O (stereo partly drawn) [MLS002554454, (3R,5S,10S,13S)-3-hydroxy-10,13-dimethyl-1,2,3,4,5,6,7,8,9,11,12,14,15,16-tetradecahydrocyclopenta[a]phenanthren-17-one]
- dose dependency in re-screening (reduction of superoxide, DHE): identified by dose dependency; also recorded: exhibited dose dependency

SMILES: COc1ccc2nc3ccccc3nc2c1 [MLS001048992, 2-methoxyphenazine]
- dose dependency in re-screening (reduction of superoxide, DHE) [1]: identified by dose dependency; also recorded: exhibited dose dependency

SMILES: COC(=O)c1cccc2nc3c(C(C)O)cccc3nc12 (centres unmarked) [MLS000863638, methyl 6-(1-hydroxyethyl)phenazine-1-carboxylate]
- dose dependency in re-screening (reduction of superoxide, DHE) [1]: identified by dose dependency; also recorded: exhibited dose dependency

SMILES: CSc1nnc(-c2ccc([N+](=O)[O-])cc2)o1 [MLS000855890, 2-methylsulfanyl-5-(4-nitrophenyl)-1,3,4-oxadiazole]
- dose dependency in re-screening (reduction of superoxide, DHE) [1]: identified by dose dependency; also recorded: exhibited dose dependency

SMILES: CCN(CC)C(=O)c1ccc2nc3ccccc3nc2c1 [MLS000595212, N,N-diethylphenazine-2-carboxamide]
- dose dependency in re-screening (reduction of superoxide, DHE) [1]: identified by dose dependency; also recorded: exhibited dose dependency
